# Patent US10981894B2, “Melanocortin subtype-2 receptor (MC2R) antagonists and uses thereof” (Crinetics Pharmaceuticals, Inc., priority 2018, dated 2021)
# Molecular target: hMC2 receptor (Homo sapiens, UniProt Q01718)
# Assay: hMC2 membrane binding assay ([125I]ACTH (1-39) Tyr23, SPA)
# Set-up: scale not given here
# Conditions: crude hMC2R membranes from CRE-bla-CHO-K1 cells expressing hMC2 receptor and hMRAP; [125I]ACTH (1-39) Tyr23 0.2 nM; 1.5 hours at room temperature; read-out: MC2R binding potency
# Outline: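 CRE-bla-CHO-K1 membranes co-expressing hMC2 receptor and hMRAP, preincubated with WGA PVT SPA beads in pH 7.4 HEPES/MgCl2/CaCl2/0.2% BSA buffer. Compounds (typically 0–10,000 nM final) compete with 0.2 nM [125I]ACTH(1-39) Tyr23 for 1.5 h at room temperature. SPA counts give Ki by non-linear regression.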
# hMC2 receptor, sequence (Q01718 whole entry): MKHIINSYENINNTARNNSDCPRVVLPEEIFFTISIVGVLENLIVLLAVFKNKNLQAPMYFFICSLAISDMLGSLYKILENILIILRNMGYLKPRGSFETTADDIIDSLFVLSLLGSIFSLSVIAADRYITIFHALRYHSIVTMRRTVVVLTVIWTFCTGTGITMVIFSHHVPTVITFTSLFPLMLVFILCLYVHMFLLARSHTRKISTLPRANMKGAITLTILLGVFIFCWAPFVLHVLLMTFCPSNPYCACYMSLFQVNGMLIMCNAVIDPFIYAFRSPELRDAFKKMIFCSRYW
# hMC2 receptor, sequence (Q8TCY5 whole entry partner): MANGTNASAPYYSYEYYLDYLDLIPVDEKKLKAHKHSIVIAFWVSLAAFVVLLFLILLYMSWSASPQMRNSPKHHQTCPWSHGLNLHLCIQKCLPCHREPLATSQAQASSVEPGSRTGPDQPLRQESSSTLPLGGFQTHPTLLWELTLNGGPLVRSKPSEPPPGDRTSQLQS
row,SMILES,Ki
1,"CCOc1ncccc1-c1ccc(N2CCN(C(=O)c3ccc(C(F)(F)F)cc3Cl)C[C@H]2CC)c(C(=O)NCCN)c1 [Compound 1-34, N-(2-aminoethyl)-2-[(2R)-4-[2-chloro-4-(trifluoromethyl)benzoyl]-2-ethylpiperazin-1-yl]-5-(2-ethoxypyridin-3-yl)benzamide]",< 10 nM
2,"CCOc1ncccc1-c1ccc(N2CCN(C(=O)c3c(F)cc(C)cc3-c3ccc(CN)cc3)C[C@H]2CC)c(C(=O)NCCN)c1 [Compound 1-44, N-(2-aminoethyl)-2-[(2R)-4-[4′-(aminomethyl)-3-fluoro-5-methyl-[1,1′-biphenyl]-2-carbonyl]-2-ethylpiperazin-1-yl]-5-(2-ethoxypyridin-3-yl)benzamide]",< 10 nM
3,"CCOc1ncccc1-c1ccc(N2CCN(C(=O)c3ccc(Cl)cc3C(F)(F)F)C[C@H]2CC)c(C(=O)NC[C@H]2CCN2C)n1 [Compound 1-231, 5-[(2R)-4-[4-chloro-2-(trifluoromethyl)benzoyl]-2-ethylpiperazin-1-yl]-2′-ethoxy-N-{[(2R)-1-methylazetidin-2-yl]methyl}-[2,3′-bipyridine]-6-carboxamide]",< 10 nM
4,"CCOc1ncccc1-c1ccc(N2CCN(C(=O)N3CCc4cccc(C#N)c43)C[C@H]2CC)c(C(=O)NC2CN(C)C2)n1 [Compound 1-409, 5-[(2R)-4-(7-cyano-2,3-dihydro-1H-indole-1-carbonyl)-2-ethylpiperazin-1-yl]-2′-ethoxy-N-(1-methylazetidin-3-yl)-[2,3′-bipyridine]-6-carboxamide]",< 10 nM
5,"CCOc1ncccc1-c1ccc(N2CCN(C(=O)c3ccc(Cl)cc3C(F)(F)F)C[C@H]2CC)c(C(=O)NCCC2=NCCN2)c1F [Compound 1-219, 6-[(2R)-4-[4-chloro-2-(trifluoromethyl)benzoyl]-2-ethylpiperazin-1-yl]-N-[2-(4,5-dihydro-1H-imidazol-2-yl)ethyl]-3-(2-ethoxypyridin-3-yl)-2-fluorobenzamide]",< 10 nM
6,"CCOc1ncccc1-c1ccc(N2CCN(C(=O)N3CCC[C@H]3c3ccccc3)C[C@H]2CC)c(C(=O)N[C@@H]2CCNC2)n1 [Compound 1-345, 2′-ethoxy-5-[(2R)-2-ethyl-4-[(2S)-2-phenylpyrrolidine-1-carbonyl]piperazin-1-yl]-N-[(3R)-pyrrolidin-3-yl]-[2,3′-bipyridine]-6-carboxamide]",< 10 nM
7,"CCOc1ncccc1-c1ccc(N2CCN(C(=O)C3(C(F)(F)F)CCCC3)C[C@H]2CC)c(C(=O)NC[C@H]2CCCN2C)n1 [Compound 1-333, 2′-ethoxy-5-[(2R)-2-ethyl-4-[1-(trifluoromethyl)cyclopentanecarbonyl]piperazin-1-yl]-N-{[(2R)-1-methylpyrrolidin-2-yl]methyl}-[2,3′-bipyridine]-6-carboxamide]",< 10 nM
8,"CCOc1ncccc1-c1ccc(N2CCN(C(=O)C3(C(F)(F)F)CCC3)C[C@H]2CC)c(C(=O)NC[C@@H]2CCN2C)n1 [Compound 1-390, 2′-ethoxy-5-[(2R)-2-ethyl-4-[1-(trifluoromethyl)cyclobutanecarbonyl]piperazin-1-yl]-N-{[(2S)-1-methylazetidin-2-yl]methyl}-[2,3′-bipyridine]-6-carboxamide]",10 to 100 nM
9,"CCOc1ncccc1-c1ccc(N2CCN(C(=O)N3CCC[C@H]3C(C)(C)F)C[C@H]2CC)c(C(=O)N[C@@H]2CCNC2)n1 [Compound 1-320, 2′-ethoxy-5-[(2R)-2-ethyl-4-[(2S)-2-(2-fluoropropan-2-yl)pyrrolidine-1-carbonyl]piperazin-1-yl]-N-[(3R)-pyrrolidin-3-yl]-[2,3′-bipyridine]-6-carboxamide]",< 10 nM
10,"CCOc1ncccc1-c1ccc(N2CCN(C(=O)c3ccc(OC)nc3C(F)(F)F)C[C@H]2CC)c(C(=O)NC[C@@H]2CCN2C)n1 [Compound 1-245, 2′-ethoxy-5-[(2R)-2-ethyl-4-[6-methoxy-2-(trifluoromethyl)pyridine-3-carbonyl]piperazin-1-yl]-N-{[(2S)-1-methylazetidin-2-yl]methyl}-[2,3′-bipyridine]-6-carboxamide]",< 10 nM
11,"CCOc1ncccc1-c1ccc(N2CCN(C(=O)c3ccc(Cl)cc3Cl)C[C@H]2CC)c(C(=O)NCC2=NCCN2)c1F [Compound 1-178, 6-[(2R)-4-(2,4-dichlorobenzoyl)-2-ethylpiperazin-1-yl]-N-[(4,5-dihydro-1H-imidazol-2-yl)methyl]-3-(2-ethoxypyridin-3-yl)-2-fluorobenzamide]",< 10 nM
12,"CCOc1ncccc1-c1ccc(N2CCN(C(=O)C3(C(F)(F)F)CCCC3)C[C@H]2CC)c(C(=O)NC23CCN(CC2)C3)n1 [Compound 1-405, N-{1-azabicyclo[2.2.1]heptan-4-yl}-2′-ethoxy-5-[(2R)-2-ethyl-4-[1-(trifluoromethyl)cyclopentanecarbonyl]piperazin-1-yl]-[2,3′-bipyridine]-6-carboxamide]",< 10 nM
13,"CCOc1ncccc1-c1ccc(N2CCN(C(=O)C3(C(F)(F)F)CCCC3)C[C@H]2CC)c(C(=O)NCC2=NCCN2C)n1 [Compound 1-415, 2′-ethoxy-5-[(2R)-2-ethyl-4-[1-(trifluoromethyl)cyclopentanecarbonyl]piperazin-1-yl]-N-[(1-methyl-4,5-dihydro-1H-imidazol-2-yl)methyl]-[2,3′-bipyridine]-6-carboxamide]",< 10 nM
14,"CCOc1ncccc1-c1ccc(N2CCN(C(=O)c3ccc(Cl)cc3C(F)(F)F)C[C@H]2CC)c(C(=O)NC[C@@H]2CCCN2)c1 [Compound 1-98, 2-[(2R)-4-[4-chloro-2-(trifluoromethyl)benzoyl]-2-ethylpiperazin-1-yl]-5-(2-ethoxypyridin-3-yl)-N-{[(2S)-pyrrolidin-2-yl]methyl}benzamide]",< 10 nM
15,"CCOc1ncccc1-c1ccc(N2CCN(C(=O)c3ccc(F)cc3C(F)(F)F)C[C@H]2CC)c(C(=O)N[C@@H]2CCNC2)n1 [Compound 1-266, 2′-ethoxy-5-[(2R)-2-ethyl-4-[4-fluoro-2-(trifluoromethyl)benzoyl]piperazin-1-yl]-N-[(3R)-pyrrolidin-3-yl]-[2,3′-bipyridine]-6-carboxamide]",< 10 nM
16,"CCOc1ncccc1-c1ccc(N2CCN(C(=O)c3ccc(F)cc3C(F)(F)F)C[C@H]2CC)c(CNCCNC)c1 [Compound 2-21, {[5-(2-ethoxypyridin-3-yl)-2-[(2R)-2-ethyl-4-[4-fluoro-2-(trifluoromethyl)benzoyl]piperazin-1-yl]phenyl]methyl}[2-(methylamino)ethyl]amine]",< 10 nM
17,"CCOc1ncccc1-c1ccc(N2CCN(C(=O)c3ccc(Cl)cc3C(F)(F)F)C[C@H]2CC)c(C(=O)N[C@@H]2CCN(C)C2)c1F [Compound 1-199, 6-[(2R)-4-[4-chloro-2-(trifluoromethyl)benzoyl]-2-ethylpiperazin-1-yl]-3-(2-ethoxypyridin-3-yl)-2-fluoro-N-[(3R)-1-methylpyrrolidin-3-yl]benzamide]",< 10 nM
18,"CCOc1ccccc1-c1ccc(N2CCN(C(=O)c3ccc(Cl)cc3C(F)(F)F)C[C@H]2CC)c(C(=O)NCCNC)n1 [Compound 1-208, 3-[(2R)-4-[4-chloro-2-(trifluoromethyl)benzoyl]-2-ethylpiperazin-1-yl]-6-(2-ethoxyphenyl)-N-[2-(methylamino)ethyl]pyridine-2-carboxamide]",< 10 nM
19,"CCOc1ncccc1-c1ccc(N2CCN(C(=O)O[C@@H](C(C)(C)C)C(F)(F)F)C[C@H]2CC)c(C(=O)NCC2CN(C)C2)n1 (single isomer, unassigned) [Compound 1-396, (2S)-1,1,1-trifluoro-3,3-dimethylbutan-2-yl (3R)-4-(2′-ethoxy-6-{[(1-methylazetidin-3-yl)methyl]carbamoyl}-[2,3′-bipyridin]-5-yl)-3-ethylpiperazine-1-carboxylate; or (2R)-1,1,1-trifluoro-3,3-dimethylbutan-2-yl (3R)-4-(2′-ethoxy-6-{[(1-methylazetidin-3-yl)methyl]carbamoyl}-[2,3′-bipyridin]-5-yl)-3-ethylpiperazine-1-carboxylate]",< 10 nM
20,"CCOc1ncccc1-c1ccc(N2CCN(C(=O)[C@H]3CC[C@@H](C(F)(F)F)CC3)C[C@H]2CC)c(C(=O)N[C@@H]2CCN(C)C2)n1 [Compound 1-286, 2′-ethoxy-5-[(2R)-2-ethyl-4-[cis-4-(trifluoromethyl)cyclohexanecarbonyl]piperazin-1-yl]-N-[(3R)-1-methylpyrrolidin-3-yl]-[2,3′-bipyridine]-6-carboxamide]",< 10 nM
21,"CCOc1ncccc1-c1ccc(N2CCN(C(=O)C3(C(F)(F)F)CCCC3)C[C@H]2CC)c(C(=O)N[C@H]2CCN(C)C2)n1 [Compound 1-363, 2′-ethoxy-5-[(2R)-2-ethyl-4-[1-(trifluoromethyl)cyclopentanecarbonyl]piperazin-1-yl]-N-[(3S)-1-methylpyrrolidin-3-yl]-[2,3′-bipyridine]-6-carboxamide]",< 10 nM
22,"CCOc1ncccc1-c1ccc(N2CCN(C(=O)c3ccc(OC)nc3C(F)(F)F)C[C@H]2CC)c(C(=O)NC[C@@H]2CCN2)n1 [Compound 1-244, N-{[(2S)-azetidin-2-yl]methyl}-2′-ethoxy-5-[(2R)-2-ethyl-4-[6-methoxy-2-(trifluoromethyl)pyridine-3-carbonyl]piperazin-1-yl]-[2,3′-bipyridine]-6-carboxamide]",< 10 nM
23,"CCOc1ncccc1-c1ccc(N2CCN(C(=O)N3CCc4cccc(C(F)(F)F)c43)C[C@H]2CC)c(C(=O)N[C@H]2CCN(C)C2)n1 [Compound 1-389, 2′-ethoxy-5-[(2R)-2-ethyl-4-[7-(trifluoromethyl)-2,3-dihydro-1H-indole-1-carbonyl]piperazin-1-yl]-N-[(3S)-1-methylpyrrolidin-3-yl]-[2,3′-bipyridine]-6-carboxamide]",< 10 nM
24,"CCOc1ncccc1-c1ccc(N2CCN(C(=O)C3(C(F)(F)F)CCCC3)C[C@H]2CC)c(C(=O)NC[C@H]2CCCN2)n1 [Compound 1-324, 2′-ethoxy-5-[(2R)-2-ethyl-4-[1-(trifluoromethyl)cyclopentanecarbonyl]piperazin-1-yl]-N-{[(2R)-pyrrolidin-2-yl]methyl}-[2,3′-bipyridine]-6-carboxamide]",< 10 nM
